Measured values as given in US20100069248A1, “HERBICIDE COMBINATION COMPRISING DIMETHOXYTRIAZINYL SUBSTITUTED DIFLUOROMETHANESULFONYLANILIDES” (BAYER CROPSCIENCE AG, priority 2008, published 2010).

Tests used:
Format in all cases: in vivo
Stellaria media (STEME) = experiment: Post-emergence action against weeds, greenhouse pots, visual scoring; conditions: 10 DAT
Procedure: (§1) Seeds or rhizome pieces of mono- and dicotyledonous harmful and useful plants were placed in peat pots (diameter 4 cm) filled with sandy loam and then covered with soil. The pots were kept in a greenhouse under optimum conditions. In addition, harmful plants encountered in paddy rice cultivation were cultivated in pots with a water level 2 cm above the soil surface.
(§2) About three weeks after the start of the cultivation, the test plants were treated at the 2- to 3-leaf stage. The herbicides, formulated as powder or liquid concentrates, were, either alone or in the combinations according to the invention, sprayed in various dosages on to the green parts of the plants using an application rate of 600 l of water/ha (converted). For further cultivation of the plants, the pots were then again kept under optimum conditions in a greenhouse.
(§3) The visual scoring of the herbicidal effects was carried out in intervals up to 21 days after the treatment. Scoring was carried out in percent in comparison to the untreated control plants. 0%=no herbicidal activity, 100%=complete herbicidal activity=complete kill.
(§4) The percentages from the treatments with the herbicides alone (=individual application) and with the combinations according to the invention (=mixtures) were employed to calculate interactions using the method of Colby. When the observed efficacies of the mixtures exceed the formal sum of the values of the tests with individual applications, they also exceed the expected value according to Colby, which is calculated using the formula below (cf. S. R. Colby; in Weeds 15 (1967) pp. 20 to 22):
(§5) • A, B=activity of components A and B in percent at a dosage of a and b g of ai/ha (=gramm of active substance per hectare), respectively. • E=expected value in % at a dosage of a+b g of ai/ha.

[1] = test system: Alopecurus myosuroides (ALOMY); experiment: as above
Procedure: as §1, §2, §3, §4, §5

[2] = test system: Amaranthus retroflexus (AMARE); experiment: as above; conditions: 21 DAT, component B 60 g of ai/ha
Procedure: as §1, §2, §3, §4, §5

Avena fatua (AVEFA) = experiment: as above; conditions: 21 DAT, component B 60 g of ai/ha
Procedure: as §1, §2, §3, §4, §5

[3] = test system: Cyperus esculentus (CYPES); experiment: as above; conditions: 21 DAT
Procedure: as §1, §2, §3, §4, §5

[4] = test system: Fallopia (ex Polygonum) convolvulus (POLCO); experiment: as above; conditions: 21 DAT
Procedure: as §1, §2, §3, §4, §5

[5] = test system: Lolium multiflorum (LOLMU); experiment: as above
Procedure: as §1, §2, §3, §4, §5

[6] = test system: Matricaria inodora (MATIN); experiment: as above; conditions: 21 DAT
Procedure: as §1, §2, §3, §4, §5

Viola tricolor (VIOTR) = experiment: as above
Procedure: as §1, §2, §3, §4, §5

[7] = test system: Triticum aestivum (TRZAS); experiment: Post-emergence action, greenhouse pots, visual scoring; conditions: 10 DAT, component B 180 g of ai/ha
Procedure: as §1, §2, §3, §4, §5

Zea mays (ZEAMX) = experiment: as above; conditions: component B 60 g of ai/ha
Procedure: as §1, §2, §3, §4, §5

Setaria viridis (SETVI) = experiment: Post-emergence action against weeds, greenhouse pots, visual scoring; conditions: 21 DAT
Procedure: as §1, §2, §3, §4, §5

[8] = 10 DAT, component B 60 g of ai/ha
[9] = 10 DAT, component B 180 g of ai/ha
[10] = 21 DAT, component B 60 g of ai/ha
[11] = 21 DAT, component B 180 g of ai/ha

COc1nc(OC)nc(C(=O)c2cccc(F)c2N(C)S(=O)(=O)C(F)F)n1 [A-1]
% activity found (Stellaria media (STEME); component A 4 g of ai/ha): 70% | % activity found (Stellaria media (STEME); component A 12 g of ai/ha): 70%

O=C(O)c1c(Cl)ccc2cc(Cl)cnc12 [B3-1, 3,7-dichloro-8-quinolinecarboxylic acid]
% activity found [1, 8]: 0% | % activity found [1, 9]: 0% | % activity found [1, 10]: 0% | % activity found [1, 11]: 0% | % activity found [2]: 40% | % activity found (Avena fatua (AVEFA)): 0% | % activity found ([3]; component B 60 g of ai/ha): 0% | % activity found ([3]; component B 180 g of ai/ha): 0% | % activity found ([4]; component B 60 g of ai/ha): 0% | % activity found ([4]; component B 180 g of ai/ha): 0% | % activity found [5, 8]: 0% | % activity found [5, 9]: 0% | % activity found ([6]; component B 60 g of ai/ha): 0% | % activity found ([6]; component B 180 g of ai/ha): 0% | % activity found (Stellaria media (STEME); component B 60 g of ai/ha): 10% | % activity found (Viola tricolor (VIOTR); [9]): 20% | % activity found (Viola tricolor (VIOTR); [10]): 40% | % activity found [7]: 0% | % activity found (Zea mays (ZEAMX); 10 DAT): 0% | % activity found (Zea mays (ZEAMX); 21 DAT): 0%

COc1c(Cl)ccc(Cl)c1C(=O)O [B1-1, 3,6-dichloro-2-methoxybenzoic acid]
% activity found [1, 10]: 0% | % activity found [1, 11]: 0% | % activity found ([3]; component B 60 g of ai/ha): 0% | % activity found ([3]; component B 180 g of ai/ha): 0% | % activity found [5, 8]: 0% | % activity found [5, 9]: 10% | % activity found [5, 10]: 0% | % activity found (Setaria viridis (SETVI); component B 60 g of ai/ha): 0% | % activity found (Setaria viridis (SETVI); component B 180 g of ai/ha): 20% | % activity found (Zea mays (ZEAMX); 10 DAT): 0%
